According to ChEMBL document CHEMBL1201862, “PubChem BioAssay data set” (2004):
The source made the active and inactive calls.

Legend:
Escherichia coli = assay: microbe, parasite or virus in culture
[1] = target: T1, Short transient receptor potential channel 4 (Mus musculus, UniProt Q9QUQ5); assay: mouse TRPC4 channel inhibitors, dose response, cell-based, HEK293 TRPC4/mu-opioid, Fluo-4 calcium (AID 434942); type: functional;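 note: potency of inhibitors blocking the TRPC4 calcium response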
T1 sequence (Q9QUQ5 whole entry): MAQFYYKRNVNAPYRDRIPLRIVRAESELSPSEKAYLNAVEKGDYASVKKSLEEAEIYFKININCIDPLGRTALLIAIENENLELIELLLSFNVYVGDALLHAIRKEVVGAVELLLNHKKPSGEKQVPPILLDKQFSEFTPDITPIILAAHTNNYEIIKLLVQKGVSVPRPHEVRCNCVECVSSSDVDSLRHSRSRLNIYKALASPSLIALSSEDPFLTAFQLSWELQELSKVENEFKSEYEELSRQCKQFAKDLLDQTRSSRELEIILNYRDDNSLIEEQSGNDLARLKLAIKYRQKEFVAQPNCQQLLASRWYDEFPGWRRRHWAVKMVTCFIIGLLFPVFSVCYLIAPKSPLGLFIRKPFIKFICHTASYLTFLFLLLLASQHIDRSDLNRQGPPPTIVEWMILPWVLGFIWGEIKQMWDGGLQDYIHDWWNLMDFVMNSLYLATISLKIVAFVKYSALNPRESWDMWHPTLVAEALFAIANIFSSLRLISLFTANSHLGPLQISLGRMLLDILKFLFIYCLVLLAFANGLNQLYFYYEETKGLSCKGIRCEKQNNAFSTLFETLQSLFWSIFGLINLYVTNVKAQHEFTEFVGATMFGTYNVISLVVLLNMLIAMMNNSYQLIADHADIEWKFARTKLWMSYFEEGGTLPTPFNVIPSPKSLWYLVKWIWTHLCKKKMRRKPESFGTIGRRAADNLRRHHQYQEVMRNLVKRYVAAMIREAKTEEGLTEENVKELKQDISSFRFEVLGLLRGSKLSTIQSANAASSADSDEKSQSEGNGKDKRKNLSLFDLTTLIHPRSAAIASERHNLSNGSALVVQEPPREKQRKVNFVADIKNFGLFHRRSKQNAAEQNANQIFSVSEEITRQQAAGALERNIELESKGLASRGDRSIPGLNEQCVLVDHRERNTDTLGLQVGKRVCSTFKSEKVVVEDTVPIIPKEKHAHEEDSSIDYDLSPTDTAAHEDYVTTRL

[2] = target: Delta-type opioid receptor (Homo sapiens, UniProt P41143); assay: Counterscreen for agonists of heterodimerization of the mu 1 (OPRM1) and delta 1 (OPRD1) opioid receptors: Luminescence-based cell-based high throughput dose response assay to identify agonists of OPRD1 homodimerization. [Related pubchem assays (depositor defined):AID504326, AID504355, AID504692, AID504904, AID504905]; type: functional
Delta-type opioid receptor, sequence (P41143 whole entry): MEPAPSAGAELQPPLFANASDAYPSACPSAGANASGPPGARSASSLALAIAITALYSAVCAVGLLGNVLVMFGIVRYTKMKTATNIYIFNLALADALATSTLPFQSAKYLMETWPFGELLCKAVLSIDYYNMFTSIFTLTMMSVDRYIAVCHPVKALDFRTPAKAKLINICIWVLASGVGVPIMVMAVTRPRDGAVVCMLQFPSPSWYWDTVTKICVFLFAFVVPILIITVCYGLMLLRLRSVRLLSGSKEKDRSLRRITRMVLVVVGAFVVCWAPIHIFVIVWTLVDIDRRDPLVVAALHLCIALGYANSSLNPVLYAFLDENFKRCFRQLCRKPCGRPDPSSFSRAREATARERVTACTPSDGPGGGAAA

Mu-type opioid receptor = Mu-type opioid receptor (Homo sapiens, UniProt P35372); assay: Counterscreen for agonists of heterodimerization of the mu 1 (OPRM1) and delta 1 (OPRD1) opioid receptors: Luminescence-based cell-based high throughput dose response assay to identify agonists of OPRM1 homodimerization.; type: functional;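 note: U2OS cells expressing OPRM1 and beta-arrestin as split beta-galactosidase partners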
Mu-type opioid receptor, sequence (P35372 whole entry): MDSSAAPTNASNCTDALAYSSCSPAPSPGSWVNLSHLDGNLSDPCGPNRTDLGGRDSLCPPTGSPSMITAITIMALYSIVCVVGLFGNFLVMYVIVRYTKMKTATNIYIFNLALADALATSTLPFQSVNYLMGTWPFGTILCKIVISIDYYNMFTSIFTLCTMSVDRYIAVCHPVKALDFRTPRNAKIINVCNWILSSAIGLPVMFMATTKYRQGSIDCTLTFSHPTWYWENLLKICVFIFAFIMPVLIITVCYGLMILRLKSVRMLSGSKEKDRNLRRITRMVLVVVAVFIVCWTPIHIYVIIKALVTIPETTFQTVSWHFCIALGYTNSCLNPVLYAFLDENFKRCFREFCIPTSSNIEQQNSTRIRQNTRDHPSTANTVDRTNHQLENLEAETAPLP

[3] = target: 5-hydroxytryptamine receptor 5A (Homo sapiens, UniProt P47898); assay: Counterscreen for agonists of OPRM1-OPRD1 heterodimerization: luminescence-based cell-based high throughput dose response assay to identify agonists of 5-hydroxytryptamine (serotonin) 5A receptor (HTR5A). [Related pubchem assays (depositor defined):AID504326, AID504355, AID504692, AID504904, AID504905]; type: functional
5-hydroxytryptamine receptor 5A, sequence (P47898 whole entry): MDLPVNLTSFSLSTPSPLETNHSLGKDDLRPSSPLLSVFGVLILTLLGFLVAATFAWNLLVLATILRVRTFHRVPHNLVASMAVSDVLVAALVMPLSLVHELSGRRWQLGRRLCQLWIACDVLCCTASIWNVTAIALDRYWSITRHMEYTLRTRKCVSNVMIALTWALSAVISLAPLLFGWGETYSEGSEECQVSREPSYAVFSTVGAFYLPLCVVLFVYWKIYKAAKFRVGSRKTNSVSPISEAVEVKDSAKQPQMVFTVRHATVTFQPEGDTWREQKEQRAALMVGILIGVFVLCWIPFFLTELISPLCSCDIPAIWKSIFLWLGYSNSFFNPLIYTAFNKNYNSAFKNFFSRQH

[4] = target: Lysine-specific demethylase 4C (Homo sapiens, UniProt Q9H3R0); assay: GASC-1 (JMJD2C) histone demethylase inhibitors, dose response, biochemical, DELFIA europium, cherry-picked samples (AID 488835); type: functional
Lysine-specific demethylase 4C, sequence (Q9H3R0 whole entry): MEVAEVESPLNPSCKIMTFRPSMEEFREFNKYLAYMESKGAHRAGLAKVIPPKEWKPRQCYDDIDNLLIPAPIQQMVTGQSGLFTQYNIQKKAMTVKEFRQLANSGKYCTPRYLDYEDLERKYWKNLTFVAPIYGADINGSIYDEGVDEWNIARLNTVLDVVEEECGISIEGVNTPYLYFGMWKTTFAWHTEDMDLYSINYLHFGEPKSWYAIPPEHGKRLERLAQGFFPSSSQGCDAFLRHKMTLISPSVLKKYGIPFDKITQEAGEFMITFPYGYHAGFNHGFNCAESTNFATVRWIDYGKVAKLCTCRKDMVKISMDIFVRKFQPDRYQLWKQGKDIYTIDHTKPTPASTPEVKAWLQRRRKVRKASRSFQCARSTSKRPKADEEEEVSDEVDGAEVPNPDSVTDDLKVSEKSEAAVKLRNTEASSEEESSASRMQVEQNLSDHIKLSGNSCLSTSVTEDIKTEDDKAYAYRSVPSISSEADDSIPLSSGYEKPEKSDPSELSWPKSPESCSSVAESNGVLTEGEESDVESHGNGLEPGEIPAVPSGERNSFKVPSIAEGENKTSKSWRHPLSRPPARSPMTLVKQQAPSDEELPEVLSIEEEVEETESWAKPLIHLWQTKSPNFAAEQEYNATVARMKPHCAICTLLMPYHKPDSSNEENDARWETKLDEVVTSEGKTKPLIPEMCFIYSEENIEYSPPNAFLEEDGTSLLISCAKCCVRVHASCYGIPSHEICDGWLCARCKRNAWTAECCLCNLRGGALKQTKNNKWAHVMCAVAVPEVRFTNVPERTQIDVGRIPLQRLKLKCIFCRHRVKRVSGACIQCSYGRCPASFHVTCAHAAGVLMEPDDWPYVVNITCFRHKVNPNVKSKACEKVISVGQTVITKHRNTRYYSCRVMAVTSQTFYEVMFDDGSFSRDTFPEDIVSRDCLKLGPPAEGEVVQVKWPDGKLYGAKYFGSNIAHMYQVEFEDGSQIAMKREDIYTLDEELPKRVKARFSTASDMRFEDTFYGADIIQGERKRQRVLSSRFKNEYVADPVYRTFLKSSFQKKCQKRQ

Jurkat = assay: antigen receptor-induced NF-kB inhibitors, dose response, Jurkat, luciferase reporter, luminescence, B- and T-cell (AID 489004); type: functional, cell-based; conditions: Homo sapiens;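 note: NF-kB luciferase reporter Jurkat cells stimulated with PMA plus ionomycin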
[5] = cytotoxicity in HEK-293T NF-kB-Luc cells, dose response, cytotoxicity control for B/T-cell NF-kB inhibitor project, cell-based, uHTS hits (AID 489019); type: functional;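 note: IC50 reflects cytotoxicity as loss of cell viability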
cells [6] = type: functional, cell-based
cells [7] = type: functional, cell-based; remark: listed apart in the source
Hexokinase HKDC1 = target: T2, Hexokinase HKDC1 (Homo sapiens, UniProt Q2TB90); assay: HKDC1 hexokinase inhibitors, dose response, biochemical, W721R variant (AID 504729); type: functional
T2 sequence (Q2TB90 whole entry): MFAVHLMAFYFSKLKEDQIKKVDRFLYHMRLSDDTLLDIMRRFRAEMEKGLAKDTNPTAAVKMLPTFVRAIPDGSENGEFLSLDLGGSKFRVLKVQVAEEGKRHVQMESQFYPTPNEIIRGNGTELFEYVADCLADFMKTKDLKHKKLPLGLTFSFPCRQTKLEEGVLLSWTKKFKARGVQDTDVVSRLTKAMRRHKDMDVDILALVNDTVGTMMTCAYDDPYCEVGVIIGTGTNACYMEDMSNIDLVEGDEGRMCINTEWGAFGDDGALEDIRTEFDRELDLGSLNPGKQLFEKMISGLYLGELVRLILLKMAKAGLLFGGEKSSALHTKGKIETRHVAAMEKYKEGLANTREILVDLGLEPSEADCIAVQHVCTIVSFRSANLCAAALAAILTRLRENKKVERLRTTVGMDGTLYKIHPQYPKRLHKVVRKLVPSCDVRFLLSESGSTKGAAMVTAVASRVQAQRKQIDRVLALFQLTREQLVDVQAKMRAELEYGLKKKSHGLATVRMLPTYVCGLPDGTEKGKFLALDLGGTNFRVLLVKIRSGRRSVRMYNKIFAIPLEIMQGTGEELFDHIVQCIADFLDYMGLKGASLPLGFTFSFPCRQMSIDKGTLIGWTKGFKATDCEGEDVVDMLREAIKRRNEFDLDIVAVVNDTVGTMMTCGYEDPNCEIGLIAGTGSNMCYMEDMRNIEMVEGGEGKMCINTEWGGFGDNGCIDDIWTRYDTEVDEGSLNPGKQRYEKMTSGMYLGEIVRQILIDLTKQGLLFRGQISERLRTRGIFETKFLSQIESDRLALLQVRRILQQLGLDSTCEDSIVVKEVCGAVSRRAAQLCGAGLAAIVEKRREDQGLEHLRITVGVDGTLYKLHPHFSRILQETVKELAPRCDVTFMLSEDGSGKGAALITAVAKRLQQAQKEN

[8] = target: T3, Microphthalmia-associated transcription factor (Homo sapiens, UniProt O75030); assay: TRPM1 promoter luciferase signal decrease, dose response, MITF inhibitor project, cell-based, SK-MEL-5, cherry-picked, set 3 (AID 493073); type: functional
T3 sequence (O75030 whole entry): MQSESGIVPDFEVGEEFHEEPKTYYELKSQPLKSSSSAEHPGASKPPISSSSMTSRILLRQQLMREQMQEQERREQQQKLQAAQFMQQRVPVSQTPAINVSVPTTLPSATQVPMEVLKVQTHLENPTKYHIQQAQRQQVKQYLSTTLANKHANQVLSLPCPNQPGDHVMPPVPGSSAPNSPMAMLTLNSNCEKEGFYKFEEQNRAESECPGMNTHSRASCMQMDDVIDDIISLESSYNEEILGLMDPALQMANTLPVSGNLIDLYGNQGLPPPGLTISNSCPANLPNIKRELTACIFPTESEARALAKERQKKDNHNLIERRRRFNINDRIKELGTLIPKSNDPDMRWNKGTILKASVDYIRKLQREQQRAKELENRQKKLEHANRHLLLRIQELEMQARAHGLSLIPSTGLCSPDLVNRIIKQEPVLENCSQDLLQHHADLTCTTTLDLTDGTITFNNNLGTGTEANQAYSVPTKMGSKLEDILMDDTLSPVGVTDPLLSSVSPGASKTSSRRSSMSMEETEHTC

[9] = target: T4, Replicative DNA helicase DnaB (Mycobacterium tuberculosis, UniProt P9WMR3); assay: DnaB intein splicing inhibitors, dose response, biochemical, cell-free fluorescence (AID 449749); type: functional
T4 sequence (P9WMR3 whole entry): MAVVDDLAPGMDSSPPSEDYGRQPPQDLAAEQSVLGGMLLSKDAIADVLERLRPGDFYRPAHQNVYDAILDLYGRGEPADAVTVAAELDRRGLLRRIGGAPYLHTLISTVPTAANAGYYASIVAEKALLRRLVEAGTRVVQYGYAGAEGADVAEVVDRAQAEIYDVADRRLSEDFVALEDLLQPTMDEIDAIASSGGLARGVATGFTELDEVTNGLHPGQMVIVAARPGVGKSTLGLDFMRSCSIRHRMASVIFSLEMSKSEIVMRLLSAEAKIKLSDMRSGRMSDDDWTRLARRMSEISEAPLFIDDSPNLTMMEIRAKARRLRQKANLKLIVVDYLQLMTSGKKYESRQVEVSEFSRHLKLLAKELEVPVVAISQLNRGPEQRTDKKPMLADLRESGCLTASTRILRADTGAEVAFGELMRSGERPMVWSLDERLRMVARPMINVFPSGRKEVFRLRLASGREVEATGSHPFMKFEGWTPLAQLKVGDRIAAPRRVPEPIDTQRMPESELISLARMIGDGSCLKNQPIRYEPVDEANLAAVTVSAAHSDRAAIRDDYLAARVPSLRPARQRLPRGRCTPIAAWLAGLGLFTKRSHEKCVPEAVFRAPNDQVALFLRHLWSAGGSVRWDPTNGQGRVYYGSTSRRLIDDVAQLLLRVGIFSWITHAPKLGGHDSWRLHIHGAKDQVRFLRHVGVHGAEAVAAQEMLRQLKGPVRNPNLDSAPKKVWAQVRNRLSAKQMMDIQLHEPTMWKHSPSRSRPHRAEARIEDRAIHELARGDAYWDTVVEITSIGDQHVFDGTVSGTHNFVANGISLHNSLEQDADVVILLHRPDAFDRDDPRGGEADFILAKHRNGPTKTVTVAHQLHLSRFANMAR

Protein RecA = target: T5, Protein RecA (Mycobacterium tuberculosis, UniProt P9WHJ3); assay: Fluorescence Cell-Free Homogeneous Dose Retest to Identify Inhibitors of RecA-Intein Splicing Activity. [Related pubchem assays (depositor defined):AID2097, AID2223, AID489010, AID492950]; type: functional
T5 sequence (P9WHJ3 whole entry): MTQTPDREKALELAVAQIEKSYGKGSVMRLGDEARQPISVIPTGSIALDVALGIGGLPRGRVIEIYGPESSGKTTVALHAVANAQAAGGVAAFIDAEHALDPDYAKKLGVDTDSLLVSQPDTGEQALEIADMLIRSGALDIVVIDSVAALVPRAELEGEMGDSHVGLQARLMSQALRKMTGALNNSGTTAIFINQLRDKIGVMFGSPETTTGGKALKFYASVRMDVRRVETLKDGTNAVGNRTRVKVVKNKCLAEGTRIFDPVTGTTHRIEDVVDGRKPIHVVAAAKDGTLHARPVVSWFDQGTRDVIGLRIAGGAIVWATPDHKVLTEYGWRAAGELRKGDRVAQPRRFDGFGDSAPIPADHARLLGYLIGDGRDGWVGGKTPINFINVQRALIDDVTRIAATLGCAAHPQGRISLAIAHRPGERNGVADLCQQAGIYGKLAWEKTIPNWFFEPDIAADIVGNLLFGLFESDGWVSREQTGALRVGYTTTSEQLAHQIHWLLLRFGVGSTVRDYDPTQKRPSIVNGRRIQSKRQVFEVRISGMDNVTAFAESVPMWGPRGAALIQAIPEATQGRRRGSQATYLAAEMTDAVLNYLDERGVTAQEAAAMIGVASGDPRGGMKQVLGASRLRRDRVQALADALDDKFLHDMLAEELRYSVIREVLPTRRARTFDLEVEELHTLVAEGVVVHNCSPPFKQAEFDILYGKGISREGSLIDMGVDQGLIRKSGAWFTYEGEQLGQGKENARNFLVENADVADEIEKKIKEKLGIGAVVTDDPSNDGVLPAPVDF

HEK293 [10] = assay: cells; conditions: Homo sapiens
HEK293 [11] = assay: cells; conditions: Homo sapiens; remark: listed apart in the source
[12] = target: SWI/SNF-related matrix-associated actin-dependent regulator of chromatin subfamily A member 2 (Homo sapiens, UniProt P51531); assay: Luminescence-based cell-based high throughput dose response assay to identify activators of the function of SWI/SNF related, matrix associated, actin dependent regulator of chromatin, subfamily a, member 2 (SMARCA2, BRM).; type: functional
SWI/SNF-related matrix-associated actin-dependent regulator of chromatin subfamily A member 2, sequence (P51531 whole entry): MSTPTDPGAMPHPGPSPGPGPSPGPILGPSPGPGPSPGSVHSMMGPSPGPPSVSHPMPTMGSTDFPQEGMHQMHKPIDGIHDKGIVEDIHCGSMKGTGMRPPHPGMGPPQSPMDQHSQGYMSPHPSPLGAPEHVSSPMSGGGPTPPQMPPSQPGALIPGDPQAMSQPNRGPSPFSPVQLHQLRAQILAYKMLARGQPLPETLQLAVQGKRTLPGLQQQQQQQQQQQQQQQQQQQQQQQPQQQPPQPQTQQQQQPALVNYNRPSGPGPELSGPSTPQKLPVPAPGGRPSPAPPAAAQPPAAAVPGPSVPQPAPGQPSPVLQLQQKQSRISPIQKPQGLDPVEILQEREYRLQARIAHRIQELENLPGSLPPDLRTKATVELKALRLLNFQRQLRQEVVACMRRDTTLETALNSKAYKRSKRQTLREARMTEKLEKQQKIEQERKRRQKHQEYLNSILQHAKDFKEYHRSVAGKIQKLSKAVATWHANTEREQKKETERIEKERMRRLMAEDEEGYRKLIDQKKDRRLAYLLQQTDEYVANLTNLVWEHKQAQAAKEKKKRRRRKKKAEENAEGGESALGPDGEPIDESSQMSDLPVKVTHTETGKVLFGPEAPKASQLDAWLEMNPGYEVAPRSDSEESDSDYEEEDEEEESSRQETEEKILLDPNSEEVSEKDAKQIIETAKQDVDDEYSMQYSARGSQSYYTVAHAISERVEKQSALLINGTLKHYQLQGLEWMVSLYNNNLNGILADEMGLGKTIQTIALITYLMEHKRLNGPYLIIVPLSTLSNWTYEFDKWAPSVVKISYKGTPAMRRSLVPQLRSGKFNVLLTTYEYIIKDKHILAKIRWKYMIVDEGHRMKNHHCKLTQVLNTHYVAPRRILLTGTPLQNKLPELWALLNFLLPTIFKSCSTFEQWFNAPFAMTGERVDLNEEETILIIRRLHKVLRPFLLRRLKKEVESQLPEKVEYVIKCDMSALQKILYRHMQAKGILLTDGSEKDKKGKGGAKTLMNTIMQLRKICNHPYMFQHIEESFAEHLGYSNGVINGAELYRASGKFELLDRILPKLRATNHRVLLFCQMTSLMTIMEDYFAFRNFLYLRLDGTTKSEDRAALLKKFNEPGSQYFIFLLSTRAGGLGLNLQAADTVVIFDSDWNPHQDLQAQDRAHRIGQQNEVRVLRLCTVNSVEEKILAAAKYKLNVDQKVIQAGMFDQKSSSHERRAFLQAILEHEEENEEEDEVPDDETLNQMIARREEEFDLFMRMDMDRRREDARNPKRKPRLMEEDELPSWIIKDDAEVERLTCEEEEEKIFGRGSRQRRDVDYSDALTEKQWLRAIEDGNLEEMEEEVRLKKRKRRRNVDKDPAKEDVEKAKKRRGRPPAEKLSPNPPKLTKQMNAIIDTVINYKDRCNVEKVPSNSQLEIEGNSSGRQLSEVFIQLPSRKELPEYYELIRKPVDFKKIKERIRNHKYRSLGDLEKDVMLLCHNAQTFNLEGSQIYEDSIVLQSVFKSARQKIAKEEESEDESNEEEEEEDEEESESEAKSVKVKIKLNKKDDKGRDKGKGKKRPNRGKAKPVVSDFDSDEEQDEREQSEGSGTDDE

[13] = Counterscreen for activators of the function of SWI/SNF related, matrix associated, actin dependent regulator of chromatin, subfamily a, member 2 (SMARCA2, BRM): Luminescence-based cell-based high throughput dose response assay to identify non-selective compounds using the VP16 reporter assay.; type: functional

Compound: c1ccc(C2NCc3ccccc3-n3cccc32)cc1 (stereo unspecified)
- AC50 (Escherichia coli): > 150 µM (inactive)

Compound: CCOC(=O)C1(CCc2ccccc2)CCN(Cc2ccco2)CC1
- EC50 [1]: 1.19 µM (active)
- EC50 [2]: > 92.5 µM (inactive)
- EC50 (Mu-type opioid receptor): > 92.5 µM (inactive)
- EC50 [3]: > 92.5 µM (inactive)

Compound: O=C1NC(=O)C(C(CC(=O)c2ccccc2)c2ccccc2)C(=O)N1 (stereo unspecified)
- AC50 [4]: 7.62 µM (active)

Compound: CC(C)Cc1cc(C(C)(C)C)ccc1OC(=S)N(C)C
- IC50 (Jurkat): > 80 µM (inactive)
- IC50 [5]: > 80 µM (inactive)

Compound: COc1ccc(-n2c(C)cc(C(=O)CCl)c2C)cc1
- EC50 (cells [6]): > 350 µM (not active)
- EC50 (cells [7]): > 350 µM (not active)
- IC50 (Hexokinase HKDC1): 27 µM (inactive)
- AC50 [8]: 6.44 µM (active)
- AC50 [9]: 22.9 µM (active)
- EC50 (Protein RecA): 19 µM (active)
- EC50 (HEK293 [10]): > 59.7 µM (inactive)
- EC50 (HEK293 [11]): > 59.7 µM (inactive)

Compound: Cc1nn(-c2ccccc2)c(C)c1NC(=O)COC(=O)c1ccc(Cl)c(S(N)(=O)=O)c1
- AC50 (Escherichia coli): 28.1 µM (active)

Compound: O=C1C2C3C=CC(C4CC34)C2C(=O)N1/N=C/c1ccc([N+](=O)[O-])o1 (stereo unspecified)
- EC50 [12]: > 91.1 µM (inactive)
- EC50 [13]: > 91.1 µM (inactive)
- EC50 (HEK293 [10]): > 59.6 µM (inactive)
- EC50 (HEK293 [11]): > 59.6 µM (inactive)
